Experiments:
SiOMT1 [1] = experiment: Lignan methylation activity assay of recombinant SiOMT1 (crude enzyme from E. coli, SAM, HPLC/LC-MS of products); type: biochemical, Sesamum indicum; details: substrate solution 1 mg/ml, 10 mM SAM, 30° C. for 2 hours, HPLC at 280 nm
Protocol: (§1) Sesame lignan used as a substrate for the enzyme reaction was dissolved in a small quantity of DMSO and then in 70% ethanol to prepare the substrate solution (1 mg/ml). Sesame lignan can be produced, for example, by extracting and purifying from sesame in accordance with publicly known methods (J. Bioscience, Biotechnology and Biochemistry, 67: 1693 (1993)). After 10 μl of the substrate solution, 200 μl of the aforesaid crude enzyme solution of SiOMT expressed in Escherichia coli and 10 μl of 10 mM S-adenosyl-L-methionine (SAM) were mixed in a reaction tube, the mixture was reacted at 30° C. for 2 hours.
The enzyme reaction was terminated by adding 100% acetonitrile (250 μl) containing 0.1% trifluoroacetic acid (TFA) to the reaction tube. The reaction tube was vigorously agitated with a vortex mixer, followed by centrifugation at 15,000 rpm at 4° C. for 5 minutes. The resulting supernatant was washed through a filter (pore size of […], 4 mm Millex-LH, Millipore) and then analyzed using high performance liquid chromatography (hereinafter HPLC). The conditions for the analysis of lignans and methylated lignans are as follows.
(§2) Liquid chromatography (Lc-2010c, Shimadzu Corporation) was performed using a C-30 column (Nomura Chemical, C30-UG-5, […]). […] Absorption was monitored at 280 nm to detect the compounds contained in a sample. The spectra between 190 nm and 400 nm for each peak of the compounds were measured using SPD-10AV (Shimadzu Corporation) to detect substances having two absorption maxima (230 nm and 280 nm) characteristic of lignans. Under the conditions, authentic pinoresinol is detected at about 11.8 minutes, authentic piperitol at about 15.5 minutes and authentic sesaminol at about 16.8 minutes.
Next, the molecular weight of the novel lignan produced with SiOMT1 was determined by the LC-MS analysis (liquid chromatography (LC): Waters 2795 (Waters Inc.), mass spectrograph: QUATRO micro (MICROMASS, Inc.)). […]
Under the conditions, peak A is detected at about 8.3 minutes and peak B at about 11.3 minutes (FIGS. 3-5). […]

SiOMT2 = experiment: Lignan methylation activity assay of recombinant SiOMT2 (crude enzyme from E. coli, SAM, HPLC of products); type: biochemical, Sesamum indicum; details: substrate solution 1 mg/ml, 10 mM SAM, 30° C. for 2 hours, HPLC at 280 nm
Protocol: as §1
The enzyme reaction was terminated by adding 100% acetonitrile (250 μl) containing 0.1% trifluoroacetic acid (TFA) to the reaction tube. […] The resulting supernatant was washed through a filter (pore size of […], 4 mm Millex-LH, Millipore) and then analyzed using high performance liquid chromatography (hereinafter HPLC). […]
as §2, with “Under the conditions, authentic pinoresinol is detected at about 11.8 minutes, authentic piperitol at about 15.5 minutes and authentic sesaminol at about 16.8 minutes.” left out

SrOMT1 [2] = experiment: Lignan methylation activity assay of recombinant SrOMT1 (crude enzyme from E. coli, SAM, HPLC of products); type: biochemical, Sesamum radiatum; details: as in EXAMPLE 6: 10 mM SAM, 30° C. for 2 hours
SrOMT1 [3] = experiment: Assay for COMT activity of SrOMT1 on caffeic acid; type: biochemical, Sesamum radiatum; details: 0.4 mg/ml caffeic acid, 10 mM SAM, 30° C. for an hour, HPLC and LC-MS; product ferulic acid
Protocol: (§3) The methyltransferase activity of SiOMT1 and SrOMT1 expressed in EXAMPLES 5 and 7 on caffeic acid was studied. In a reaction tube, 10 μl of 0.4 mg/ml caffeic acid, 200 μl of the crude enzyme solution of SiOMT expressed in Escherichia coli and 10 μl of 10 mM SAM were mixed, and the mixture was reacted at 30° C. for an hour.

SiOMT1 [4] = experiment: Assay for COMT activity of SiOMT1 on caffeic acid; type: biochemical, Sesamum indicum; details: 0.4 mg/ml caffeic acid, 10 mM SAM, 30° C. for an hour, HPLC and LC-MS; product ferulic acid
Protocol: as §3

Molecule	methylation of the substrate by SiOMT1 (lignan methylation activity) (SiOMT1 [1])	methylation of the substrate by SiOMT2 (lignan methylation activity) (SiOMT2)	methylation of the substrate by SrOMT1 (lignan methylation activity) (SrOMT1 [2])	methyltransferase (COMT) activity of SrOMT1 on caffeic acid (SrOMT1 [3])	methyltransferase (COMT) activity of SiOMT1 on caffeic acid (SiOMT1 [4])
COc1cc([C@@H]2OC[C@@H]3[C@H]2CO[C@H]3c2ccc3c(c2)OCO3)ccc1O [piperitol]	having the monomethylation activity	any new product was not detected	exhibited the methylation activity		
Oc1cc2c(cc1[C@H]1OC[C@H]3[C@@H]1CO[C@@H]3c1ccc3c(c1)OCO3)OCO2 [sesaminol]	did not show any methylation activity				
O=C(O)/C=C/c1ccc(O)c(O)c1 [caffeic acid]				had the COMT activity	had the COMT activity
pinoresinol	having the monomethylation activity	any new product was not detected	exhibited the methylation activity		

From US7982094B2, “Gene encoding lignan methylation enzyme” (Sunitory Holdings Limited, priority 2006, dated 2011)
